Data from ChEMBL document CHEMBL1201861, “Genomics of Drug Sensitity in Cancer screening data, Wellcome Trust Sanger Institute”.

Tests used:
Assay in all cases: cells
[1] = tested on: GT3TKB; format: functional, cell-based, Homo sapiens; conditions: Homo sapiens, GT3TKB;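 note: growth inhibition of the cell line, read out with a cell viability assay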
Description: SANGER: Inhibition of human GT3TKB cell growth in a cell viability assay.

[2] = tested on: NCI-H747; format: functional, cell-based, Homo sapiens; conditions: Homo sapiens, NCI-H747;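 note: growth inhibition of human NCI-H747 cells, read out by a cell viability assay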
Description: SANGER: Inhibition of human NCI-H747 cell growth in a cell viability assay.

[3] = tested on: NOS-1; format: functional, cell-based, Homo sapiens; conditions: Homo sapiens, NOS-1;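 note: growth inhibition of the human NOS-1 cell line, read out with a cell viability assay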
Description: SANGER: Inhibition of human NOS-1 cell growth in a cell viability assay.

[4] = tested on: SW 962; format: functional, cell-based, Homo sapiens; conditions: Homo sapiens, SW 962;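 note: growth inhibition of human SW962 cells, read out by a cell viability assay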
[5] = tested on: BE-13; format: functional, cell-based, Homo sapiens; conditions: Homo sapiens, BE-13;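 note: growth inhibition of human BE-13 cells, measured with a cell viability assay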
Description: SANGER: Inhibition of human BE-13 cell growth in a cell viability assay.

[6] = tested on: TGBC1TKB; format: functional, cell-based, Homo sapiens; conditions: Homo sapiens, TGBC1TKB;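 note: growth inhibition of TGBC1TKB cells, read out by a cell viability assay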
Description: SANGER: Inhibition of human TGBC1TKB cell growth in a cell viability assay.

[7] = tested on: CAS-1; format: functional, cell-based, Homo sapiens; conditions: Homo sapiens, CAS-1;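 note: growth inhibition of CAS-1 cells, measured with a cell viability assay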
[8] = tested on: COLO-684; format: functional, cell-based, Homo sapiens; conditions: Homo sapiens, COLO-684
[9] = tested on: CTB-1; format: functional, cell-based, Homo sapiens; conditions: Homo sapiens, CTB-1
Description: SANGER: Inhibition of human CTB-1 cell growth in a cell viability assay.

[10] = tested on: DJM-1; format: functional, cell-based, Homo sapiens; conditions: Homo sapiens, DJM-1;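 note: growth inhibition of human DJM-1 cells, read out by a cell viability assay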
[11] = tested on: DSH1; format: functional, cell-based; conditions: Homo sapiens;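 note: growth inhibition of human DSH1 cells, measured with a cell viability readout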
Description: SANGER: Inhibition of human DSH1 cell growth in a cell viability assay.

[12] = tested on: ES4; format: functional, cell-based, Homo sapiens; conditions: Homo sapiens, ES4;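 note: growth inhibition of human ES4 cells, read out by a cell viability assay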
[13] = tested on: EW-1; format: functional, cell-based, Homo sapiens; conditions: Homo sapiens, EW-1;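 note: growth inhibition of the human EW-1 cell line, read out by a cell viability assay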
Description: SANGER: Inhibition of human EW-1 cell growth in a cell viability assay.

[14] = tested on: EW-13; format: functional, cell-based, Homo sapiens; conditions: Homo sapiens, EW-13;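 note: growth inhibition of EW-13 cells, read out with a cell viability assay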
Description: SANGER: Inhibition of human EW-13 cell growth in a cell viability assay.

[15] = tested on: GCIY; format: functional, cell-based, Homo sapiens; conditions: Homo sapiens, GCIY;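 note: growth inhibition of the human GCIY cell line, read out by a cell viability assay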
Description: SANGER: Inhibition of human GCIY cell growth in a cell viability assay.

[16] = tested on: HAL-01; format: functional, cell-based, Homo sapiens; conditions: Homo sapiens, HAL-01;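 note: growth inhibition of human HAL-01 cells, read out with a cell viability assay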
Description: SANGER: Inhibition of human HAL-01 cell growth in a cell viability assay.

[17] = tested on: HCE-T; format: functional, cell-based, Homo sapiens; conditions: Homo sapiens, HCE-T;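 note: cell viability assay read-out, reporting inhibition of HCE-T cell growth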
Description: SANGER: Inhibition of human HCE-T cell growth in a cell viability assay.

[18] = tested on: IST-MES1; format: functional, cell-based, Homo sapiens; conditions: Homo sapiens, IST-MES1;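 note: growth inhibition of IST-MES1 cells, measured with a cell viability assay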
Description: SANGER: Inhibition of human IST-MES1 cell growth in a cell viability assay.

[19] = tested on: JAR; format: functional, cell-based, Homo sapiens; conditions: Homo sapiens, JAR;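 note: growth inhibition of human JAR cells determined with a cell viability assay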
Description: SANGER: Inhibition of human JAR cell growth in a cell viability assay.

[20] = tested on: KE-37; format: functional, cell-based, Homo sapiens; conditions: Homo sapiens, KE-37;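 note: growth inhibition of KE-37 cells, read out with a cell viability assay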
Description: SANGER: Inhibition of human KE-37 cell growth in a cell viability assay.

[21] = tested on: KURAMOCHI; format: functional, cell-based, Homo sapiens; conditions: Homo sapiens, KURAMOCHI;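 note: growth inhibition of KURAMOCHI cells, read out with a cell viability assay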
Description: SANGER: Inhibition of human KURAMOCHI cell growth in a cell viability assay.

[22] = tested on: L-363; format: functional, cell-based, Homo sapiens; conditions: Homo sapiens, L-363
[23] = tested on: LAMA-84; format: functional, cell-based, Homo sapiens; conditions: Homo sapiens, LAMA-84;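 note: growth inhibition of LAMA-84 cells, read out with a cell viability assay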
[24] = tested on: LB1047-RCC; format: functional, cell-based, Homo sapiens; conditions: Homo sapiens, LB1047-RCC;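 note: inhibition of cell growth, determined with a cell viability assay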
Description: SANGER: Inhibition of human LB1047-RCC cell growth in a cell viability assay.

[25] = tested on: MC116; format: functional, cell-based, Homo sapiens; conditions: Homo sapiens, MC116;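 note: growth inhibition of MC116 cells, read out with a cell viability assay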
Description: SANGER: Inhibition of human MC116 cell growth in a cell viability assay.

[26] = tested on: NB10; format: functional, cell-based, Homo sapiens; conditions: Homo sapiens, NB10;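 note: growth inhibition of NB10 cells, read out by a cell viability assay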
Description: SANGER: Inhibition of human NB10 cell growth in a cell viability assay.

[27] = tested on: NCI-H446; format: functional, cell-based, Homo sapiens; conditions: Homo sapiens, NCI-H446;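 note: growth inhibition of NCI-H446 cells determined by a cell viability assay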
Description: SANGER: Inhibition of human NCI-H446 cell growth in a cell viability assay.

[28] = tested on: NCI-H526; format: functional, cell-based, Homo sapiens; conditions: Homo sapiens, NCI-H526;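 note: growth inhibition of the human NCI-H526 cell line, measured by a cell viability assay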
Description: SANGER: Inhibition of human NCI-H526 cell growth in a cell viability assay.

[29] = tested on: NCI-H82; format: functional, cell-based, Homo sapiens; conditions: Homo sapiens, NCI-H82;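 note: growth inhibition of NCI-H82 cells, measured with a cell viability readout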
Description: SANGER: Inhibition of human NCI-H82 cell growth in a cell viability assay.

[30] = tested on: SNU1; format: functional, cell-based, Homo sapiens; conditions: Homo sapiens, SNU1;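 note: growth inhibition of human NCI-SNU-1 cells, measured with a cell viability assay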
Description: SANGER: Inhibition of human NCI-SNU-1 cell growth in a cell viability assay.

[31] = tested on: NMC-G1; format: functional, cell-based, Homo sapiens; conditions: Homo sapiens, NMC-G1;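 note: growth inhibition of the NMC-G1 cell line, measured with a cell viability read-out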
Description: SANGER: Inhibition of human NMC-G1 cell growth in a cell viability assay.

[32] = tested on: OS-RC-2; format: functional, cell-based, Homo sapiens; conditions: Homo sapiens, OS-RC-2;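 note: growth inhibition of human OS-RC-2 cells, measured by a cell viability assay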
Description: SANGER: Inhibition of human OS-RC-2 cell growth in a cell viability assay.

[33] = tested on: OVCAR-4; format: functional, cell-based, Homo sapiens; conditions: Homo sapiens, OVCAR-4;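 note: growth inhibition of human OVCAR-4 cells, measured with a cell viability assay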
Description: SANGER: Inhibition of human OVCAR-4 cell growth in a cell viability assay.

[34] = tested on: P30-OHK; format: functional, cell-based, Homo sapiens; conditions: Homo sapiens, P30-OHK;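 note: growth inhibition of the P30-OHK cell line, read out with a cell viability assay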
Description: SANGER: Inhibition of human P30-OHK cell growth in a cell viability assay.

[35] = tested on: RKO; format: functional, cell-based, Homo sapiens; conditions: Homo sapiens, RKO;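 note: growth inhibition of human RKO cells, read out with a cell viability assay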
[36] = tested on: RXF 393; format: functional, cell-based, Homo sapiens; conditions: Homo sapiens, RXF 393;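 note: growth inhibition of human RXF 393 cells, read out with a cell viability assay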
Description: SANGER: Inhibition of human RXF393 cell growth in a cell viability assay.

[37] = tested on: SHP77; format: functional, cell-based, Homo sapiens, SHP-77; conditions: Homo sapiens, SHP77;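 note: growth inhibition of human SHP-77 cells measured by a cell viability assay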
[38] = tested on: SK-N-FI; format: functional, cell-based, Homo sapiens; conditions: Homo sapiens, SK-N-FI;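 note: cell viability assay measuring growth inhibition of human SK-N-FI cells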
Description: SANGER: Inhibition of human SK-N-FI cell growth in a cell viability assay.

[39] = tested on: SK-NEP-1; format: functional, cell-based, Homo sapiens; conditions: Homo sapiens, SK-NEP-1;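 note: growth inhibition of human SK-NEP-1 cells, read out by a cell viability assay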
Description: SANGER: Inhibition of human SK-NEP-1 cell growth in a cell viability assay.

[40] = tested on: 697; format: functional, cell-based, Homo sapiens; conditions: Homo sapiens
[41] = tested on: A3-KAW; format: functional, cell-based, Homo sapiens; conditions: Homo sapiens, A3-KAW;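 note: growth inhibition of human A3-KAW cells, read out with a cell viability assay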
[42] = tested on: A4-Fuk; format: functional, cell-based, Homo sapiens; conditions: Homo sapiens, A4-Fuk;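 note: growth inhibition of A4-Fuk cells, read out by a cell viability assay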
Description: SANGER: Inhibition of human A4-Fuk cell growth in a cell viability assay.

[43] = tested on: ATN-1; format: functional, cell-based, Homo sapiens; conditions: Homo sapiens, ATN-1;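 note: growth inhibition of human ATN-1 cells, read out with a cell viability assay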
Description: SANGER: Inhibition of human ATN-1 cell growth in a cell viability assay.

[44] = tested on: TK-10; format: functional, cell-based, Homo sapiens; conditions: Homo sapiens, TK-10;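 note: growth inhibition of TK-10 cells, read out in a cell viability assay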
[45] = tested on: U-266; format: functional, cell-based, Homo sapiens; conditions: Homo sapiens, U-266
[46] = tested on: EW-3; format: functional, cell-based, Homo sapiens; conditions: Homo sapiens, EW-3;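 note: cell viability assay read-out, IC50 reflects inhibition of growth of the EW-3 cells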
Description: SANGER: Inhibition of human EW-3 cell growth in a cell viability assay.

[47] = tested on: JVM-2; format: functional, cell-based, Homo sapiens; conditions: Homo sapiens, JVM-2;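 note: growth inhibition of JVM-2 cells determined by a cell viability assay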
Description: SANGER: Inhibition of human JVM-2 cell growth in a cell viability assay.

[48] = tested on: LU-139; format: functional, cell-based, Homo sapiens; conditions: Homo sapiens, LU-139
[49] = tested on: ML-2; format: functional, cell-based, Homo sapiens; conditions: Homo sapiens, ML-2;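 note: growth inhibition of ML-2 cells, measured with a cell viability readout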
Description: SANGER: Inhibition of human ML-2 cell growth in a cell viability assay.

[50] = tested on: SBC-1; format: functional, cell-based, Homo sapiens; conditions: Homo sapiens, SBC-1;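 note: cell viability assay measuring growth inhibition of the SBC-1 cell line, IC50 being the concentration that halves growth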
Description: SANGER: Inhibition of human SBC-1 cell growth in a cell viability assay.

Measured: IC50

CO[C@@H]1[C@H](N(C)C(=O)c2ccccc2)C[C@H]2O[C@]1(C)n1c3ccccc3c3c4c(c5c6ccccc6n2c5c31)C(=O)NC4 [MIDOSTAURIN]
380 nM: [1]
182 nM: [7]
> 512 nM: [2] | [3] | [4] | [5] | [6] | [8]

O=C(NCCCNc1nc(Nc2cccc(NC(=O)N3CCCC3)c2)ncc1I)c1cccs1 [BX-795]
3020 nM: [7]
4190 nM: [30]
496 nM: [34]
731 nM: [41]
1290 nM: [24]
3100 nM: [20]
2340 nM: [4]
1650 nM: [39]
3410 nM: [36]
705 nM: [5]
1900 nM: [1]
1370 nM: [43]
1020 nM: [40]
1180 nM: [22]
4930 nM: [27]
2400 nM: [9]
> 5000 nM: [10] | [11] | [12] | [13] | [14]; read-out: IC50 | [15] | [16] | [17] | [18] | [21] | [25] | [28] | [2] | [29] | [31] | [3] | [32] | [33] | [35] | [37] | [38] | [42] | [6] | [44] | [45] | [8]
4230 nM: [26]
3440 nM: [19]
1770 nM: [23]

O=C1NC(=O)c2c1c(-c1ccccc1Cl)cc1[nH]c3ccc(O)cc3c21
431 nM: [40]
484 nM: [20]
1160 nM: [16]
898 nM: [30]
924 nM: [12]
> 2000 nM: [10] | [11] | [14]; read-out: IC50 | [15] | [1] | [17] | [18] | [19] | [47] | [21] | [23] | [48] | [25] | [49] | [26] | [27] | [28] | [2] | [29] | [31] | [3] | [32] | [35] | [36] | [50] | [37] | [38] | [39] | [4] | [42] | [5] | [6] | [44] | [45] | [7] | [8]
1910 nM: [34]
1530 nM: [22]
338 nM: [13]
516 nM: [41]
947 nM: [46]
242 nM: [9]
316 nM: [43]

Cc1ccc(NC(=O)c2ccc(CN3CCN(C)CC3)cc2)cc1Nc1nccc(-c2cccnc2)n1 [IMATINIB]
73 nM: [23]
> 2000 nM: [9] | [10] | [11] | [12] | [13] | [14] | [46] | [15] | [1] | [16] | [17] | [18] | [19] | [47] | [20] | [22] | [24] | [48] | [25] | [49] | [26] | [27] | [28] | [2] | [29] | [30] | [31] | [32] | [33] | [34] | [35] | [36] | [50] | [37] | [38] | [39] | [4] | [40] | [41] | [42] | [43] | [5] | [6] | [44] | [45] | [7] | [8]
1650 nM: [3]

CS(=O)(=O)N1CCN(Cc2cc3nc(-c4cccc5[nH]ncc45)nc(N4CCOCC4)c3s2)CC1 [PICTILISIB]
1140 nM: [9]
3730 nM: [4]
207 nM: [16]
> 4000 nM: [10] | [11] | [13] | [14]; read-out: IC50 | [1] | [17] | [18] | [19] | [20] | [21] | [25] | [26] | [27] | [2] | [29] | [30] | [31] | [32] | [33] | [35] | [36] | [37] | [38] | [41] | [43] | [5] | [6] | [45] | [7]
832 nM: [40]
523 nM: [24] | [8]
798 nM: [22]
726 nM: [39]
2030 nM: [23]
1300 nM: [42]
1670 nM: [44]
212 nM: [3]
731 nM: [34]
1910 nM: [28]
434 nM: [15]
640 nM: [12]
